Reference: patent US11007282B2, “Compositions for circulatory system visualization” (DICRONIS SAGL, priority 2015, dated 2021)

How the values were obtained:
[1] = In vitro fluorescence quantification of PVP-ICG formulations (Kollidon 17 PF), microplate reader; settings: λEx/Em 770/818 nm
[2] = in vivo; cited from earlier work

SMILES: CC1(C)C(/C=C/C=C/C=C/C=C2\N(CCCCS(=O)(=O)O)c3ccc4ccccc4c3C2(C)C)=[N+](CCCCS(=O)(=O)[O-])c2ccc3ccccc3c21 [ICG, sodium 4-[2-[(1E,3E,5E,7Z)-7-[1,1-dimethyl-3-(4-sulfonatobutyl)benzo[e]indol-2-ylidene]hepta-1,3,5-trienyl]-1,1-imethylbenzo[e]-indol-3-ium-3-yl]butane-1-sulfonate]
- n-fold increase of ICG fluorescence in presence of PVP compared to water solution ([1]; ICG 0.025 mg/mL, Kollidon 17 PF 0.25 g/mL (1:10'000)): 1.32 n-fold
- n-fold increase of ICG fluorescence in presence of PVP compared to water solution ([1]; ICG 0.06 mg/mL, Kollidon 17 PF 0.25 g/mL (1:4'166)): 1.68 n-fold
- n-fold increase of ICG fluorescence in presence of PVP compared to water solution ([1]; ICG 0.15 mg/mL, Kollidon 17 PF 0.25 g/mL (1:1'666)): 2.2 n-fold
- route of excretion [2]: excreted exclusively in the bile
